# Earlier results in patent publication US8445528B2, “Dendrimer conjugates” (priority 2008, dated 2013).
# Details: more cytotoxic than IRINOTECAN
smiles,measurement,value
"CC[C@@]1(O)C(=O)OCc2c1cc1n(c2=O)Cc2cc3cc(O)ccc3nc2-1 [SN-38, 10-hydroxycamptothecin]",cytotoxicity relative to IRINOTECAN,1000 fold
